# From patent US12583921B2, “Targeted anti-SGLT1 avian IgY antibodies as treatment of pre-diabetes, type 2 diabetes and gestational diabetes” (Lay Sciences, Inc., priority 2022, dated 2026)
# Marks after values point to notes of the source that are not given here.
# What was measured:
# [1] = Method: The animals were acclimatized and were randomly distributed into 6 groups, each group comprised of 6 rats. The rats in group G1 served as a normal control group and were administered the vehicle (normal saline) alone at the dose volume of 10 mL/kg, whereas the rats in groups G2 and G3 were administered metformin and anti-SGLT1 IgY antibody, respectively, at the doses of 200 mg/kg and 500 mg/kg body weight for single administration.
# Wistar rats = test: Oral Glucose Tolerance Test (OGTT) model in Wistar rats, single dose; type: in vivo; settings: for blood glucose level, mean / area under curve, mean: metformin 200 mg/kg, n = 6
# Method: An animal study was conducted to assess the effect of administering the anti-SGLT1 IgY antibody in an Oral Glucose Tolerance Test (OGTT) model in Wistar rats. The OGTT test was performed to determine if an intervention has blocked the intestinal absorption of orally given glucose load, and then lowering of the increase in blood glucose levels is observed. […] The OGTT studies were conducted on overnight fasting animals.
# SGLT1 = target: T1, SGLT1 (Homo sapiens, UniProt P13866); test: Inhibition of glucose uptake in human intestinal cell line CaCo2; type: cell-based; settings: CaCo2 cells; 800 μg/ml; relative to uptake without intervention; FIG. 3
# T1 construct: a human intestinal cell line CaCo2, which expresses SGLT1; endogenous in cells; host or cells: CaCo2
# T1 sequence (P13866 1-664): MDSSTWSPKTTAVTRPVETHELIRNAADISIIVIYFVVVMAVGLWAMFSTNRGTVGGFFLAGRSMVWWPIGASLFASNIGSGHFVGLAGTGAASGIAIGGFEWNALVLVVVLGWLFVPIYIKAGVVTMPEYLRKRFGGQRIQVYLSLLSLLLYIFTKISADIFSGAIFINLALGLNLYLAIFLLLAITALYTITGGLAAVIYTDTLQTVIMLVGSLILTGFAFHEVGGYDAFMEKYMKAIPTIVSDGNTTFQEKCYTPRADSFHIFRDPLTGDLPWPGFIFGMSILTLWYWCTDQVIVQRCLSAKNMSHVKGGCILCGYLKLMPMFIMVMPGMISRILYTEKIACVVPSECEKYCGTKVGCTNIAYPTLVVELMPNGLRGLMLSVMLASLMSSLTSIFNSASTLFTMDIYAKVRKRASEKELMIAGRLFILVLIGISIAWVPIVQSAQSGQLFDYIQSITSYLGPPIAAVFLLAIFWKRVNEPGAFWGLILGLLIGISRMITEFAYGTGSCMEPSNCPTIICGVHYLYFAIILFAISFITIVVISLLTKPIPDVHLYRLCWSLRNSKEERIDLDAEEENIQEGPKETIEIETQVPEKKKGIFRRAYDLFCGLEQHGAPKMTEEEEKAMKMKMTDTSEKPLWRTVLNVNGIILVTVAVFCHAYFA
# Method: The IgY antibodies were then tested for their ability to inhibit the uptake of glucose in a human intestinal cell line CaCo2, which expresses SGLT1. The data in FIG. 3 are shown as percent inhibition of glucose uptake relative to glucose uptake in the absence of any intervention. […] In the figure, ** is P<0.01 Student's t-tests were performed to compare between the glucose inhibition shown by controls, peptide, and different concentration of IgY antibodies.
# [2] = 30, 60, 90 and 120 min after 2 g/kg oral glucose
Compound,"Mortality ([1]; male rats, single dose, metformin 200 mg/kg, anti-SGLT1 IgY 500 mg/kg, deaths/animals observed)","Individual Animal Clinical Signs Observations ([1]; male, Wistar, rat, in vivo, 1 day)","Body Weights, mean ([1]; rat, in vivo)","blood glucose level, mean (Wistar rats; 0 minutes (before glucose 2 gm/kg), anti-SGLT1 IgY 500 mg/kg given 30 min before)","area under curve, mean (Wistar rats; 0 minutes, anti-SGLT1 IgY 500 mg/kg)",area under curve compared to normal control group G1 (Wistar rats; [2]),blood glucose level compared to normal control group G1 (Wistar rats; [2]),"blood glucose level, mean (Wistar rats; 30 minutes after glucose 2 gm/kg, anti-SGLT1 IgY 500 mg/kg)","area under curve, mean (Wistar rats; 30 minutes, anti-SGLT1 IgY 500 mg/kg)","blood glucose level, mean (Wistar rats; 60 minutes after glucose 2 gm/kg, anti-SGLT1 IgY 500 mg/kg)","area under curve, mean (Wistar rats; 60 minutes, anti-SGLT1 IgY 500 mg/kg)","blood glucose level, mean (Wistar rats; 90 minutes after glucose 2 gm/kg, anti-SGLT1 IgY 500 mg/kg)","area under curve, mean (Wistar rats; 90 minutes, anti-SGLT1 IgY 500 mg/kg)","blood glucose level, mean (Wistar rats; 120 minutes after glucose 2 gm/kg, anti-SGLT1 IgY 500 mg/kg)","area under curve, mean (Wistar rats; 120 minutes, anti-SGLT1 IgY 500 mg/kg)","blood glucose level, mean (Wistar rats; 180 minutes after glucose 2 gm/kg, anti-SGLT1 IgY 500 mg/kg)","area under curve, mean (Wistar rats; 180 minutes, anti-SGLT1 IgY 500 mg/kg)",percent inhibition of glucose uptake (SGLT1)
"CN(C)C(=N)N=C(N)N [Metformin, metformin]",0/6,1,232.63 g,108.17 mg/dL,0.00 mg/dL,Significantly decreased,Significantly decreased,161.67** mg/dL,8.99* mg/dL,127.17* mg/dL,9.63** mg/dL,121.50* mg/dL,8.29** mg/dL,114.00** mg/dL,7.85** mg/dL,106.33** mg/dL,3.67** mg/dL,
QSGQLFDYIQSITSYLGPP [peptide used as antigen],,,,,,,,,,,,,,,,,,able to block the uptake of glucose
